Assay results taken from patent US9526254B2, “Pesticide and repellant” (ECOSPRAY LIMITED, priority 2005, dated 2016).

Tested on: cabbage root fly
Experiment: Swede field trials in Norway, cabbage root fly damage (four sites)
Assay type: in vivo
Protocol: An extensive program of non-public field trials, which included five crops of swede were carried out. The field trials design was based around multiple applications of either ECOguard® liquid (garlic juice concentrate) or granules (wood flour granules impregnated with the garlic juice concentrate) and in four out of the five swede trials was referenced against Dimethoate as a standard.

## CNC(=O)CSP(=S)(OC)OC [Dimethoate]
In vivo
  Combined root damage index (RDI), % Change: −5.8%
  Combined root damage index (RDI), Ga-Fa: 65.78
  Combined root damage index (RDI), Mid-Troms: 40.60
  Combined root damage index (RDI), Sor Ost: 24.92
  Combined root damage index (RDI), Toten: 44.33
  Difference of Means (trt 1 control subtracted from trt), cabbage root fly damage: −0.3100
  cabbage root fly damage, statistical analysis: significantly reduced damage
Mean of four sites versus control
  mean saleable yield (cat 1 + 2), % Change: +8%
